Structures are written as SMILES. pEC50: −log10 of the molar value.

A word on the pEC50: it is −log10 of the EC50, conventionally taken in molar units.

In this test the test system is genotype A, "Long" strain RSV. Put plainly: RSV-A assay (CPE, ATPlite readout in Hep-2 cells). In kind it is cell-based. Conditions: human respiratory syncytial virus, HEp-2, Hep-2 cells, genotype A "Long" strain RSV, MOI 0.1; read-out: Human RSV-A (“Long” strain) EC50. The text has this: Hep-2 cells, (originally derived from tumors grown in irradiated-cortisonised weanling rats that had been injected with epidermoid carcinoma tissue from a person's larynx, but later found to be indistinguishable from HeLa cells by PCR DNA analysis), were used for the culturing of genotype A, “Long” strain RSV. Flasks were inoculated with RSV and viral stocks were collected once cytopathic effect (CPE) was greater than […]. Viral stocks in […] sucrose media were snap frozen using liquid nitrogen to increase viral stability. Viral stock titers were quantified by tissue culture infectious dose 50% (TCID50) using 8,000 cells per well and 3-fold viral dilutions across a 96-well plate, cultured for 4 days. Viral stock titers were also quantified by a plaque forming unit assay, as described elsewhere.
Following extensive parameter testing, the final assay is run as follows: Hep-2 cells are seeded into the inner 60 wells of a 96-well plate at 8,000 cells per well in a volume of 50 μL using Growth Media (DMEM without phenol red, 1% L-Glut, 1% Penn/Strep, 1% nonessential amino acids, 10% heat-inactivated FBS). 2-fold serial dilutions of control and test compounds are added to the wells in duplicate in a total volume of 25 μL. Viral stock is then added to the wells at a multiplicity of infection (MOI) of 0.1 in a volume of 25 μL, bringing the total volume of each well to 100 μL. The MOI is calculated using the PFU/mL, or TCID50 if unavailable. Each 96-well plate has a control column of 6 wells with cells and virus but no compound (negative control, max CPE), a column with cells but no compound or virus (positive control, minimum CPE), and a column with no cells or virus or compound (background plate/reagent control). The control wells with cells but no virus are given an additional 25 μL of growth media containing an equal quantity of sucrose as those wells receiving the viral stock in order to keep consistent in media and volume conditions. The outer wells of the plate are filled with 125 μL of moat media (DMEM, 1% Penn/Strep) to act as a thermal and evaporative moat around the test wells. Following a 5-day incubation period, the plates are read using ATPlite (50 uL added per well), which quantifies the amount of ATP (a measure of cell health) present in each well. Assay plates are read using the Envision luminometer. […] EC50 ranges are as follows: A<0.2 μM; B>0.2 μM.
(In general: Cellular ATP, detected with luciferase, serves as a proxy for viable cell number.)
As for `C[C@]1(C(N)=O)COc2c1cc([C@@](O)(CNC(=O)c1ccc(-c3ccnc(C(F)(F)F)c3)c(OC3CC3)c1)C(F)(F)F)nc2-c1ccc(F)cc1` [Example 152], the pEC50 was under 6.70.

Take `Cc1cnccc1-c1ccc(C(=O)NC[C@](O)(c2cc3c(c(-c4ccc(F)cc4)n2)OC[C@]3(C)C(N)=O)C(F)(F)F)cc1OC1CC1` [Example 153]: the pEC50 was under 6.70.

Consider `C[C@]1(C(N)=O)COc2c1cc([C@@](O)(CNC(=O)c1ccc(-c3ccncc3C(F)(F)F)c(OC3CC3)c1)C(F)(F)F)nc2-c1ccc(F)cc1` [Example 154], for which the pEC50 was under 6.70.

`C[C@]1(C(N)=O)COc2c1cc([C@@](O)(CNC(=O)c1ccc(-c3ccccn3)c(OC3CC3)c1)C(F)(F)F)nc2-c1ccc(F)cc1` [Example 155]: the pEC50 was under 6.70.

For `C[C@]1(C(N)=O)COc2c1cc([C@@](O)(CNC(=O)c1ccc(-c3ccc(C(F)(F)F)cn3)c(OC3CC3)c1)C(F)(F)F)nc2-c1ccc(F)cc1` [Example 156], the pEC50 is under 6.70.

Regarding `Cc1ccc(-c2ccc(C(=O)NC[C@](O)(c3cc4c(c(-c5ccc(F)cc5)n3)OC[C@]4(C)C(N)=O)C(F)(F)F)cc2OC2CC2)nc1` [Example 157], the pEC50 was under 6.70.

With `Cc1cccc(-c2ccc(C(=O)NC[C@](O)(c3cc4c(c(-c5ccc(F)cc5)n3)OC[C@]4(C)C(N)=O)C(F)(F)F)cc2OC2CC2)n1` [Example 158], the pEC50 was under 6.70.

With `C[C@]1(C(N)=O)COc2c1cc([C@@](O)(CNC(=O)c1ccc(N3CCC3)c(OC3CC3)c1)C(F)(F)F)nc2-c1ccc(F)cc1` [Example 159], the pEC50 was over 6.70.

Take `C[C@]1(C(N)=O)COc2c1cc([C@@](O)(CNC(=O)c1ccc(N3CCOCC3)c(OC3CC3)c1)C(F)(F)F)nc2-c1ccc(F)cc1` [Example 160]: the pEC50 is under 6.70.

In the case of `C[C@]1(C(N)=O)COc2c1cc([C@@](O)(CNC(=O)c1ccc(N3CCCCC3)c(OC3CC3)c1)C(F)(F)F)nc2-c1ccc(F)cc1` [Example 161], the pEC50 was under 6.70.

Regarding `C[C@]1(C(N)=O)COc2c1cc([C@@](O)(CNC(=O)c1ccc(-c3cccc(C(F)(F)F)n3)c(OC3CC3)c1)C(F)(F)F)nc2-c1ccc(F)cc1` [Example 162], the pEC50 is under 6.70.

On to `C[C@]1(C(N)=O)COc2c1cc([C@@](O)(CNC(=O)c1ccc(-c3ncccn3)c(OC3CC3)c1)C(F)(F)F)nc2-c1ccc(F)cc1` [Example 163], for which the pEC50 is under 6.70.

Take `Cc1ncc(-c2ccc(C(=O)NC[C@](O)(c3cc4c(c(-c5ccc(F)cc5)n3)OC[C@]4(C)C(N)=O)C(F)(F)F)cc2OC2CC2)cn1` [Example 164]: the pEC50 is under 6.70.

On to `C[C@]1(C(N)=O)COc2c1cc([C@@](O)(CNC(=O)c1ccc(-c3cnc(C4CC4)nc3)c(OC3CC3)c1)C(F)(F)F)nc2-c1ccc(F)cc1` [Example 165], for which the pEC50 was under 6.70.

For `C[C@]1(C(N)=O)COc2c1cc([C@@](O)(CNC(=O)c1ccc(-c3cnccn3)c(OC3CC3)c1)C(F)(F)F)nc2-c1ccc(F)cc1` [Example 166], the pEC50 was over 6.70.

With `Cc1cnc(-c2ccc(C(=O)NC[C@](O)(c3cc4c(c(-c5ccc(F)cc5)n3)OC[C@]4(C)C(N)=O)C(F)(F)F)cc2OC2CC2)cn1` [Example 167], the pEC50 was under 6.70.

Turning to `C[C@]1(C(N)=O)COc2c1cc([C@@](O)(CNC(=O)c1ccc(-c3ccnnc3)c(OC3CC3)c1)C(F)(F)F)nc2-c1ccc(F)cc1` [Example 168], the pEC50 was over 6.70.

As to `C[C@]1(C(N)=O)COc2c1cc([C@@](O)(CNC(=O)c1ccc(-c3ccc(=O)[nH]c3)c(OC3CC3)c1)C(F)(F)F)nc2-c1ccc(F)cc1` [Example 169], the pEC50 was under 6.70.

Consider `C[C@]1(C(N)=O)COc2c1cc([C@@](O)(CNC(=O)c1ccc(-c3ccncn3)c(OC3CC3)c1)C(F)(F)F)nc2-c1ccc(F)cc1` [Example 170], for which the pEC50 was under 6.70.

For the molecule `C[C@]1(C(N)=O)COc2c1cc([C@@](O)(CNC(=O)c1ccc(-c3ncco3)c(OC3CC3)c1)C(F)(F)F)nc2-c1ccc(F)cc1` [Example 171], the pEC50 is over 6.70.

Source of the values: patent US11505558B1, “Antiviral heterocyclic compounds” (Enanta Pharmaceuticals, Inc., priority 2019, dated 2022).
